How the values were obtained:
[1] = tested on: gastrointestinal propulsive motility; assay: Mouse Cecal Test (charcoal in cecum, inhibition of gastrointestinal propulsive motility); format: in vivo, male Charles River mice; conditions: oral/IG, test compound 30 min before charcoal, cecum examined 3.5 h after charcoal, logistic method of Berkson
Excerpt: The present compounds are potent anti-diarrheal agents as evidenced by their ability to inhibit gastrointestinal propulsive motility as set forth in the following tests:
The method used for this assay is a modification of the techniques previously described by Macht and Barba-Gose, J. Amer. Pharm. Ass., 20, 558 (1931), and Janssen and Jageneau, J. Pharm. Pharmacol., 9, 381 (1957). Details are as follows:
A group of six, male Charles River mice weighing 20-25 g. which have been previously fasted for 24 hours are pretreated with the test compounds administered orally as a solution in water or suspended in 0.5% methyl cellulose. A constant volume of 10 ml./kg. is employed. Thirty minutes following administration of the test compounds, the animals are given a single oral dose of charcoal which consists of 0.2 ml. per mouse of 10% charcoal suspended in 1.0% methyl cellulose. Three and a half hours after charcoal administration, the animals are sacrificed and the cecum examined for the absence or presence of charcoal on an all-or-none basis.
The median effective dose (ED50) is then calculated for each compound using the logistic method of Berkson (1953).

[2] = tested on: castor oil-induced diarrhea; assay: Castor Oil-Induced Diarrhea in the Rat; format: in vivo, Charles River male rats; conditions: po, intragastric, 1 h before castor oil (1.0 ml per rat), at 2 hours past castor oil, method of Berkson
Method: Adult Charles River male rats are fasted in community cages for 24 hours prior to the test, with free access to water. The test compound is then administered intragastrically (suspended on 0.5% methyl cellulose) one hour prior to the intragastric administration of a dose of 1.0 ml. castor oil per rat. The rats are then observed for the presence or absence of diarrhea at hourly intervals for up to 8 hours past the castor oil administration. Using the method of Berkson (1953), the median effective dose (ED50) values are calculated at each hourly interval for the test compound.
The median effective dose at 2 hours past the castor oil administration for the following representative compound of the present invention in the castor oil-induced diarrhea in the Rat test is: […]

With `Cl.c1ccc(C(CC2CC3CCN2CC3)(c2ccccc2)c2ccccc2)cc1` (stereo not shown) [2-(2,2,2-triphenylethyl)-1-azabicyclo[2.2.2] octane hydrochloride] the ED50 [1] was 0.9 ± 0.2 mg/kg and the ED50 [2] was 0.2 ± 0.05 mg/kg.

Work on `Cl.c1ccc(C(CC2CC3CCN2CC3)(c2ccccc2)c2ccccn2)cc1` (stereo not shown) [2-[2,2-diphenyl-2-(2-pyridyl)ethyl]-1-azabicyclo[2.2.2]octane hydrochloride] yielded an ED50 [1] of 18.1 ± 10.3 mg/kg.

`Cc1nnc(C(CC2CC3CCN2CC3)(c2ccccc2)c2ccccc2)o1.Cl` (stereo not shown) [2-[2-(5-methyl-1,3,4-oxadiazol-2-yl)-2,2-diphenylethyl]-1-azabicyclo[2.2.2]octane hydrochloride] showed an ED50 [1] of 4.4 ± 1.3 mg/kg.
